Here are results for 25 compounds from patent US9663460B2, “Sulfur derivatives as chemokine receptor modulators” (ALLERGAN, INC., priority 2010, dated 2017).

pIC50: −log10 of the molar value.

For the assay, the target named is CCR2 (Homo sapiens (Human), UniProt P41597). The assay can be described thus: Calcium activity assayed on the FLIPR Tetra in HEK-Gqi5 cells stably expressing CCR2. As to conditions: FLIPR Tetra calcium assay. The assay is classed as cell-based.
Chain of CCR2 (P41597 whole entry, species assumed): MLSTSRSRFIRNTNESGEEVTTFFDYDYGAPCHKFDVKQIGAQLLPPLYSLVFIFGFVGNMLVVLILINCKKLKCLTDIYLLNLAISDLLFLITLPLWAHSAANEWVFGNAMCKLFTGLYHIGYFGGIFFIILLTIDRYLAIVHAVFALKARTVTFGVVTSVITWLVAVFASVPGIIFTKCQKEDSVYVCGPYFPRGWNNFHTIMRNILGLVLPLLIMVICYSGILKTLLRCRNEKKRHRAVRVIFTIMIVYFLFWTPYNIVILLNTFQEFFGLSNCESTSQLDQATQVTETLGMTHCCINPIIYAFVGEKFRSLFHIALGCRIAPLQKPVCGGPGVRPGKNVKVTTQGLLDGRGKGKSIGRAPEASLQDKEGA
As for `O=S(=O)(Cc1ccccc1)c1ccc(Cl)cc1NS(=O)(=O)c1cc2ccccc2o1` [N-[2-(benzylsulfonyl)-5-chlorophenyl]-1-benzofuran-2-sulfonamide], the “CCR2 % ANTAGONISM” value is reported as 90% and the pIC50 is 7.47.
For `Nc1cccc(C[S+]([O-])c2ccc(Cl)cc2NS(=O)(=O)c2cccc(Cl)c2)c1` (centres unmarked) [N-{2-[(3-aminobenzypsulfinyl]-5-chlorophenyl}-3-chlorobenzenesulfonamide], the “CCR2 % ANTAGONISM” value amounted to 93% and the pIC50 was 6.80.
As to `CN(C)C(=O)CC[S+]([O-])c1ccc(Cl)cc1NS(=O)(=O)c1cc2ccccc2o1` (centres unmarked) [3-({2-[(1-benzofuran-2-ylsulfonyl)amino]-4-chlorophenyl}sulfinyl)-N,N-dimethylpropanamide], the “CCR2 % ANTAGONISM” value stood at 104% and the negative-log IC50 (pIC50) was 6.80.
The matching figures for `CN(C)C(=O)CCSc1ccc(Cl)cc1NS(=O)(=O)c1ccc(Cl)c(C(F)(F)F)c1` [3-{[4-chloro-2-({[4-chloro-3-(trifluoromethyl)phenyl]sulfonyl}amino)phenyl]thio}-N,N-dimethylpropanamide]: 80% and 6.30.
For `CSc1ccc(Cl)cc1NS(=O)(=O)c1ccc(I)cc1` [N-[5-chloro-2-(methylthio)phenyl]-4-iodobenzenesulfonamide], in that order: 71% and 5.69.
For the compound `NC(=O)NCCS(=O)(=O)c1ccc(Cl)cc1NS(=O)(=O)c1cc2ccccc2o1` [N-[2-({2-[(aminocarbonyl)amino]ethyl}sulfonyl)-5-chlorophenyl]-1-benzofuran-2-sulfonamide], the “CCR2 % ANTAGONISM” value is given as 68% and the pIC50 is 5.70.
For `N#Cc1ccc([S+]([O-])Cc2ccccc2)c(NS(=O)(=O)c2cc3ccccc3o2)c1` (centres unmarked) [N-[2-(benzylsulfinyl)-5-cyanophenyl]-1-benzofuran-2-sulfonamide], in that order: 105% and 7.30.
The matching figures for `O=S(=O)(CCc1cn[nH]c1)c1ccc(Cl)cc1NS(=O)(=O)c1cc2ccccc2o1` [N-(5-chloro-2-{[2-(1H-pyrazol-4-yl)ethyl]sulfonyl}phenyl)-1-benzofuran-2-sulfonamide]: 93% and 6.24.
For `O=[N+]([O-])c1ccccc1C[S+]([O-])c1ccc(Cl)cc1NS(=O)(=O)c1cc2ccccc2o1` (centres unmarked) [N-{5-chloro-2-[(2-nitrobenzyl)sulfinyl]phenyl}-1-benzofuran-2-sulfonamide], in that order: 95% and 7.12.
For `O=S(=O)(Nc1cc(Cl)ccc1SCc1cccnc1)c1cc2ccccc2o1` [N-{5-chloro-2-[(pyridin-3-ylmethyl)thio]phenyl}-1-benzofuran-2-sulfonamide], the “CCR2 % ANTAGONISM” value was found to be 97% and the negative logarithm of the IC50 (pIC50) is 7.66.
The matching figures for `CN(C)C(=O)CSc1ccc(Cl)cc1NS(=O)(=O)c1ccc(Cl)c(C(F)(F)F)c1` [2-{[4-chloro-2-({[4-chloro-3-(trifluoromethyl)phenyl]sulfonyl}amino)phenyl]thio}-N,N-dimethylacetamide]: 92% and 6.93.
The matching figures for `O=[N+]([O-])c1cc(C[S+]([O-])c2ccc(Cl)cc2NS(=O)(=O)c2cc3ccccc3o2)n[nH]1` (centres unmarked) [N-(5-chloro-2-{[(5-nitro-1H-pyrazol-3-yl)methyl]sulfinyl}phenyl)-1-benzofuran-2-sulfonamide]: 94% and 6.12.
Consider `CC(=O)NCCS(=O)(=O)c1ccc(Cl)cc1NS(=O)(=O)c1ccc(Cl)c(C(F)(F)F)c1` [N-(2-{[4-chloro-2-({[4-chloro-3-(trifluoromethyl)phenyl]sulfonyl}amino)phenyl]sulfonyl}ethyl)acetamide], for which the “CCR2 % ANTAGONISM” value is 98% and the pIC50 is 5.28.
The matching figures for `O=S(=O)(Nc1cc(Cl)ccc1[S+]([O-])C(F)(F)F)c1cc2ccccc2o1` (centres unmarked) [N-{5-chloro-2-[(trifluoromethyl)sulfinyl]phenyl}-1-benzofuran-2-sulfonamide]: 89% and 7.72.
For `O=c1cc(CSc2ccc(Cl)cc2NS(=O)(=O)c2cc3ccccc3o2)[nH]c(=O)[nH]1` [N-(5-chloro-2-{[(2,6-dioxo-1,2,3,6-tetrahydropyrimidin-4-yl)methyl]thio}phenyl)-1-benzofuran-2-sulfonamide], in that order: 98% and 5.63.
For `Nc1nc(CSc2ccc(Cl)cc2NS(=O)(=O)c2cc3ccccc3o2)cs1` [N-(2-{[(2-amino-1,3-thiazol-4-yl)methyl]thio}-5-chlorophenyl)-1-benzofuran-2-sulfonamide], in that order: 102% and 7.38.
In the case of `Nc1cccc(CSc2ccc(Cl)cc2NS(=O)(=O)c2cc3ccccc3o2)c1` [N-{2-[(3-aminobenzypthio]-5-chlorophenyl}-1-benzofuran-2-sulfonamide], the “CCR2 % ANTAGONISM” value is given as 92% and the pIC50 was 7.38.
On to `O=S(=O)(Cc1ncc[nH]1)c1ccc(Cl)cc1NS(=O)(=O)c1ccc(Cl)c(C(F)(F)F)c1` [4-chloro-N-{5-chloro-2-[(1H-imidazol-2-ylmethyl)sulfonyl]phenyl}-3-(trifluoromethyl)benzenesulfonamide], for which the “CCR2 % ANTAGONISM” value was 113% and the negative logarithm of the IC50 (pIC50) is 6.60.
For `Nc1cc(CS(=O)(=O)c2ccc(Cl)cc2NS(=O)(=O)c2cc3ccccc3o2)n[nH]1` [N-(2-{[(5-amino-1H-pyrazol-3-yl)methyl]sulfonyl}-5-chlorophenyl)-1-benzofuran-2-sulfonamide], in that order: 98% and 5.73.
For `C[S+]([O-])c1ccc(Cl)cc1NS(=O)(=O)c1ccco1` (centres unmarked) [N-[5-chloro-2-(methylsulfinyl)phenyl]furan-2-sulfonamide], in that order: 96% and 5.63.
The matching figures for `O=S(=O)(Nc1cc(Cl)ccc1[S+]([O-])Cc1cccc(O)c1)c1cc2ccccc2o1` (centres unmarked) [N-{5-chloro-2-[(3-hydroxybenzyl)sulfinyl]phenyl}-1-benzofuran-2-sulfonamide]: 103% and 6.95.
For the compound `CSc1ccc(Cl)cc1NS(=O)(=O)c1cc2ccccc2o1` [N-[5-chloro-2-(methylthio)phenyl]-1-benzofuran-2-sulfonamide], the “CCR2 % ANTAGONISM” value was 99% and the pIC50 was 7.59.
In the case of `O=S(=O)(CCc1ccccn1)c1ccc(Cl)cc1NS(=O)(=O)c1cc2ccccc2o1` [N-{5-chloro-2-[(2-pyridin-2-ylethyl)sulfonyl]phenyl}-1-benzofuran-2-sulfonamide], the “CCR2 % ANTAGONISM” value is recorded as 93% and the pIC50 is 6.71.
For `O=[N+]([O-])c1ccc(CS(=O)(=O)c2ccc(Cl)cc2NS(=O)(=O)c2cc3ccccc3o2)cc1` [N-{5-chloro-2-[(4-nitrobenzyl)sulfonyl]phenyl}-1-benzofuran-2-sulfonamide], in that order: 20% and 5.67.
As to `C[S+]([O-])c1ccc(Cl)cc1NS(=O)(=O)c1ccc(Cl)c(Cl)c1` (centres unmarked) [3,4-dichloro-N-[5-chloro-2-(methylsulfinyl)phenyl]benzenesulfonamide], the “CCR2 % ANTAGONISM” value is 87% and the pIC50 was 7.36.
